# Data as given in patent US20060121069A1, “Compositions and methods for treating hair loss using oximyl and hydroxylamino prostaglandins” (Duke University, priority 2000, published 2006).
# Target: T1, hFP (Homo sapiens, UniProt P43088)
# T1 construct: expressed in transfected cells; host or cells: COS-7 cells, transient transfection with LipofectAMINE; membranes prepared
# Test: Radioligand Binding Assay (receptor competition binding, hFP membranes)
# Conditions: competition against 5 nM (3H) PGF2 on hFP membrane from transfected COS-7 cells; method per Reference Example 1; read-out: IC50 of the Prostaglandin
# Procedure: IC50 of a prostaglandin can be determined relative to PGF2α using the Radioligand Binding Assay. As a control, the IC50 for PGF2α itself should be no lower than 1.0 nM and no higher than 5.0 nM.
# In this assay, COS-7 cells are transiently transfected with the hFP recombinant plasmid using LipofectAMINE Reagent. Forty-eight hours later, the tranfected cells are washed with Hank's Balanced Salt Solution (HBSS, without CaCl2, MgCl2, MgSO4, or phenol red). The cells are detached with versene, and HBSS is added. The mixture is centrifuged at 200g for 10 minutes, at 4° C. to pellet the cells. The pellet is resuspended in Phosphate-Buffered Saline-EDTA buffer (PBS; 1 mM EDTA; pH 7.4; 4° C.). The cells are disrupted by nitrogen cavitation (Parr model 4639), at 800 psi, for 15 minutes at 4° C. The mixture is centrifuged at 1000 g for 10 minutes at 4° C. The supernatant is centrifuged at 100,000 g for 60 minutes at 4° C. The pellet is resuspended to 1 mg protein/mL TME buffer (50 mM Tris; 10 mM MgCl2; 1 mM EDTA; pH 6.0; 4° C.) based on protein levels measured using the Pierce BCA Protein Assay kit. The homogenate is mixed for 10 seconds using a Kinematica POLYTRON® (available from KINEMATICA AG, Luzernerstrasse147A CH-6014 Littau, Switzerland). The membrane preparations are then stored at −80° C., until thawed for assay use.
# The receptor competition binding assays are developed in a 96 well format. Each well contains […] of hFP membrane, 5 nM (3H) PGF2, and the various competing compounds in a total volume of […]. The plates are incubated at 23° C. for 1 hour. The incubation is terminated by rapid filtration using the Packard Filtermate 196 harvester through Packard UNIFILTER® GF/B filters (available from Packard Instrument Co., Inc. of Downers Grove Ill.) pre-wetted with TME buffer. The filter is washed four times with TME buffer. […] The plates are read on a Packard TOPCOUNT® Microplate Scintillation Counter (also available from Packard Instrument Co., Inc.)
# T1 sequence (P43088 whole entry): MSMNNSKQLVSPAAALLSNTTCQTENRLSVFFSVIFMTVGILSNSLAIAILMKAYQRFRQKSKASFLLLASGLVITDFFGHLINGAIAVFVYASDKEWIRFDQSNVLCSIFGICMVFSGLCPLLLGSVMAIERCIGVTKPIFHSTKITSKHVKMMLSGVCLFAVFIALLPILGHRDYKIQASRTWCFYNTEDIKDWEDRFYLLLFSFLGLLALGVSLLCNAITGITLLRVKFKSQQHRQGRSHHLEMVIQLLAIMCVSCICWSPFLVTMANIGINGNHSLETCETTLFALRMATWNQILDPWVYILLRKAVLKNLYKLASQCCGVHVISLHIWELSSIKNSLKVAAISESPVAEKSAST
row,IC50 [nM],Structure (SMILES)
1,150,CCCCC[C@H](O)/C=C/[C@H]1C(NO)C[C@H](O)[C@@H]1C/C=C\CCCC(=O)O (stereo partly drawn) [Example 1-2]
2,162,O=C(O)CCCCCC[C@H]1[C@@H](O)C/C(=N/O)[C@@H]1CC[C@@H](O)CSc1ccccc1
3,15,CCCCC[C@H](O)/C=C/[C@H]1/C(=N\O)C[C@H](O)[C@@H]1C/C=C\CCCC(=O)O [Example 1-1]
